The structures appear in SMILES notation.

One data set relates to cancer cell lines. The experiment in a line: wst-1 cytotoxic test, all tested cancer cell lines. Type of data set: cell-based, Human. The note with it: breast, colon, pancreas, cervical, prostate or brain cancer or osteosarcoma. From the text:
Several cancer cell lines were used: breast cancer cells (MDA-MB-231 (ATTCC® Number HTB-26™), MDA-MB-436 (ATTCC® Number HTB-130™), MDA-MB-438, BT-474 (ATTCC® Number HTB-20™)); cervical cancer cells (HeLa (ATTCC® Number CCL-2™)); colon cancer cells (HCT-116 (ATTCC® Number CCL-247™) and HT-29 (ATTCC® Number HTB-38™)); osteosarcoma cells (U2OS (ATTCC® Number HTB-96™)); pancreas cancer cells (MIA PaCa-2 (ATTCC® Number CRL-1420™) and Panc-10.5 (ATTCC® Number CRL-2547™)); prostate cancer cells (PC-3 (ATTCC® Number CRL-1435™) and LNCaP (ATTCC® Number CRL-1740™)); brain cancer cells (U87 glioblastoma (ATTCC® Number HTB-14™) and SH-SYSY neuroblastoma (ATTCC® Number CRL-2266™)). […]
After observation of cells under the microscope, old media were removed and the adherent cells washed gently twice with PBS (Phosphate Buffer Saline, —Ca^2+, —Mg^2+, Lonza cat no: 17-512F/12). […] 50 μl of this solution were transferred in 20 μl of isotonic solution and the cells were counted by count cellular (Beckman Coulter). […]
The cell proliferation WST-1 assay is a colorimetric assay for the quantification of cell proliferation and viability, based on the enzymatic cleavage of the tetrazolium salt WST-1 added to the culture medium, to a water soluble colored formazan dye, detected by absorbance at 450 nm, by mitochondrial succinate-tetrazolium reductase in viable cells. […]

For a further data set, the target named is T1, NRP-2 (Homo sapiens, UniProt O60462).
T1 construct: fused on or other part: Possibly an Fc or His tag on the purchased soluble ectodomain
The experiment in a line: ELISA inhibition of VEGF binding to NRP-2. Here is the method: Elisa test was performed covering a 96-well microplate (BD Biosciences, France, cat no 353046) surface with 100 μl of 1×PBS, pH 7.4 with Ca^2+ and Mg^2+, (Lonza, France, cat no 17-513F/12) solution containing 0.2 μg/ml of VEGF-R1 (R&D Systems, UK, cat no 321-FL-050/CF) or 2 μg/ml of NRP-1 (R&D Systems, UK, cat no 3870-N1-025) or NRP-2 (R&D Systems, UK, cat no 321-FL). The plate was sealed and incubated overnight at 4° C. After 3 washes with 200 μl of 1×PBS 0.5% (v/v) Tween 20 (Sigma, France, cat no 34078) (Buffer A), the plate was blocked by adding 200 μl of 1×PBS with 0.5% (w/v) BSA (Eurobio, France, cat no GAUBSA01-65) and agitated at 37° C. for 2 h. After washing five times with Buffer A, 50 μl/well of the compounds of the invention at 10 μM were added for the specific signal and 50 μl/well for the non-specific and max binding signal and incubated at 37° C. for 1 hour, shacking. […] Luminescence was quantified with an EnVision™ 2101 Multilabel reader (Perkin Elmer, USA) and the data analyzed by Wallac Envision manager software. […] Non-specific binding is defined as the signal measured in the absence of receptor coated on the microplate. The specific binding was calculated as the difference between total binding and non-specific binding. The percentage of inhibition was calculated as following: […]
On the technique in general: In an ELISA, binding on a coated surface is turned into a signal by an enzyme label.

T1 sequence (O60462 whole entry, the tested form may be a part): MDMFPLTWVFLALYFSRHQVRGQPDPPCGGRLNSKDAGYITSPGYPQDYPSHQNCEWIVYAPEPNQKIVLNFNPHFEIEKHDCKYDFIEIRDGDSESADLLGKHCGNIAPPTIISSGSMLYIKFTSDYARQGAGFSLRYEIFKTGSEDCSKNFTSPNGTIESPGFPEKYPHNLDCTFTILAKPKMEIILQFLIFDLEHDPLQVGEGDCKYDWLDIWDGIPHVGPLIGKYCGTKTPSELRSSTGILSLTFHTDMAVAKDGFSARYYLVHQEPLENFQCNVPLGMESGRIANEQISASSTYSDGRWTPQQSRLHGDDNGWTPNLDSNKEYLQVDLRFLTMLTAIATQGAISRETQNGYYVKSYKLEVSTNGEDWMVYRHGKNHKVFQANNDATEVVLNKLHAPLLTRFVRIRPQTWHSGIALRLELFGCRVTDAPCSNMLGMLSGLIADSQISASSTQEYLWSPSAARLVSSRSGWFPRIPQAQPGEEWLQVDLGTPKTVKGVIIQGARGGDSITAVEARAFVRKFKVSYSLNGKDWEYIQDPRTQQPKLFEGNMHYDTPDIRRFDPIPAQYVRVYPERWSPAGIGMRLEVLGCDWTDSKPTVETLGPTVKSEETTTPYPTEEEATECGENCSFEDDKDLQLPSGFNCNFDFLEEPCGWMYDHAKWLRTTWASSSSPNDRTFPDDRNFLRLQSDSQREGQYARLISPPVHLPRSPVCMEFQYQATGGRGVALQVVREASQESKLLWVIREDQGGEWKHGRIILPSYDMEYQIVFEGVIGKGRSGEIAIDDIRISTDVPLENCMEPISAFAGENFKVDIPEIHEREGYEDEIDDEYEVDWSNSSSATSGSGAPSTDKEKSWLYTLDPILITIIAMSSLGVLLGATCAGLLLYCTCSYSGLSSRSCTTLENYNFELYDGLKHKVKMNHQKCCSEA

Turning to `Cc1ccc(-c2nc3ccccc3[nH]2)cc1NC(=S)NC(=O)c1ccc2c(c1)OCCO2` [Compound 1, N-[5-(1H-benzimidazol-2-yl)-2-methylphenyl]-N′-(2,3-dihydro-1,4-benzodioxin-6-ylcarbonyl)thiourea], in the data set with cancer cell lines, the “cytotoxicity for all the tested cancer cell lines” value was “cytotoxic for all the tested cancer cell lines”. Also, the IC50 – broadly, the midpoint of a concentration-inhibition curve – at NRP-2 is 42 ± 3.15 µM.

For `O=C(NC(=S)Nc1cccc(-c2nc3ccccc3[nH]2)c1)c1ccc2c(c1)OCCO2` [Compound 2, N-[3-(1H-benzimidazol-2-yl)phenyl]-N′-(2,3-dihydro-1,4-benzodioxin-6-ylcarbonyl)thiourea], in the data set on cancer cell lines, the “cytotoxicity for all the tested cancer cell lines” value is “cytotoxic for all the tested cancer cell lines”. The same compound registered an IC50 at NRP-2 of 35 ± 5.23 µM.
